Experimental data from US20180008573A1, “METHODS AND COMPOSITIONS FOR REDUCING DAMAGE ASSOCIATED WITH OXIDATIVE PHOSPHORYLATION” (USANA Health Sciences, Inc., priority 2016, published 2018).

Experiments:
human PPARα = target: T1, human PPARα (Homo sapiens, UniProt Q07869); assay: PPARα agonist reporter assay (Gal4 hybrid receptor, luciferase, CHO cells); assay type: cell-based
T1 construct: expressed in transfected cells; host or cells: CHO
T1 sequence (Q07869 239-466 limits assumed): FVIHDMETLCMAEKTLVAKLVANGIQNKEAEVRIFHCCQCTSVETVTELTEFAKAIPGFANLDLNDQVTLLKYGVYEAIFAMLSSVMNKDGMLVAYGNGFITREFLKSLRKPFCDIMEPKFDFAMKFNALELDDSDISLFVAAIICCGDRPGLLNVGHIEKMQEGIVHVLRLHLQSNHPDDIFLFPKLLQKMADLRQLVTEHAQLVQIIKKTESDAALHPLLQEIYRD

human PPARγ = target: T2, human PPARγ (Homo sapiens, UniProt P37231); assay: PPARγ agonist reporter assay (Gal4 hybrid receptor, luciferase, CHO cells); assay type: cell-based
T2 construct: expressed in transfected cells; host or cells: CHO
T2 sequence (P37231 238-503 limits assumed): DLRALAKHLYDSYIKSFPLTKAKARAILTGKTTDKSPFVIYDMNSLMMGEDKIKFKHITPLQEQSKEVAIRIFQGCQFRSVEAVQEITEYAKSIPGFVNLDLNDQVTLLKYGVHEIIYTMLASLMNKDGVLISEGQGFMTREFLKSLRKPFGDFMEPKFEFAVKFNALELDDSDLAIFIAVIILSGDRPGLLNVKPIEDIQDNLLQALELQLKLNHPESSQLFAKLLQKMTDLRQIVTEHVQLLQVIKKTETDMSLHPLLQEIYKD

human NF-κB = assay: NF-κB antagonist reporter assay (NF-κB GRE-luciferase, HEK293 cells); assay type: cell-based;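 note: reporter cells carry native NF-κB receptor with firefly luciferase under upstream response elements, with a vehicle control included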
NF-κB reporter cells = assay: Live cell multiplex assay in the NF-κB antagonist assay; assay type: cell-based, human
Method: A vehicle control was prepared.

Nrf2 = target: T3, Nrf2 (Homo sapiens, UniProt Q16236); assay: Nrf2 agonist reporter assay (native receptor, ARE-luciferase, CV1 cells); assay type: cell-based; design: comprising either the native receptor (Nrf2 and NF-κB); expressed in transfected cells; host or cells: CV1
T3 sequence (Q16236 1-605): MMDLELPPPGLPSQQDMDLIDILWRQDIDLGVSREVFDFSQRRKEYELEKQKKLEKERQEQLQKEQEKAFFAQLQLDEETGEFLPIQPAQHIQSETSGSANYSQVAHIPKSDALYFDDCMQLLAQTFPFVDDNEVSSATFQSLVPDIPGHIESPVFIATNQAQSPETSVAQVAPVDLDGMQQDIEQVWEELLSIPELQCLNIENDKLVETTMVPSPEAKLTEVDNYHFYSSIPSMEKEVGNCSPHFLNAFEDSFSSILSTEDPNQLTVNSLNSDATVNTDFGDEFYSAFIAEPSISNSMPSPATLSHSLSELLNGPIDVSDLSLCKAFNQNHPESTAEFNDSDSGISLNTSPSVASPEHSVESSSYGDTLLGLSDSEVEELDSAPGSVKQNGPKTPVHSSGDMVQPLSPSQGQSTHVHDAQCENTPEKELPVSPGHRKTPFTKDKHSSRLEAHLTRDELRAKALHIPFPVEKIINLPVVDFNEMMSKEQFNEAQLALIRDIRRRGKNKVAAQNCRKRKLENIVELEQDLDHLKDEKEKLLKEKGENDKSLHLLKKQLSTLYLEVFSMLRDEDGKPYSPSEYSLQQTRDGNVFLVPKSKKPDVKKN

For `O=C(O)CCCCC1CCSS1` (racemic) [Alpha lipoic acid, alpha lipoic acid], the “PPARα Fold-Activation” value (human PPARα; 1.42 μg/ml active ingredient) was 1.4 fold, the “PPARα Fold-Activation” value (human PPARα; 4.25 μg/ml active ingredient) was 1.3 fold and the “PPARα Fold-Activation” value (human PPARα; 12.7 μg/ml active ingredient) was 1.2 fold. The “PPARα Fold-Activation” value (human PPARα; 38.23 μg/ml active ingredient) was 1.5 fold, the “PPARα Fold-Activation” value (human PPARα; 114.70 μg/ml active ingredient) was 2.3 fold and the “agonist activity against human PPARα” value (human PPARα; at the concentrations tested) was “very low-level agonist activity”. The “PPARγ Fold-Activation” value (human PPARγ; 1.42 μg/ml active ingredient) was 1.1 fold, the “PPARγ Fold-Activation” value (human PPARγ; 4.25 μg/ml active ingredient) was 1.1 fold and the “PPARγ Fold-Activation” value (human PPARγ; 12.7 μg/ml active ingredient) was 1.3 fold. The “PPARγ Fold-Activation” value (human PPARγ; 38.23 μg/ml active ingredient) was 1.4 fold, the “PPARγ Fold-Activation” value (human PPARγ; 114.70 μg/ml active ingredient) was 3.4 fold and the “agonist activity against human PPARγ” value (human PPARγ; at the concentrations tested) was “very low-level agonist activity”. The “induction concentration (PPARγ)” value (human PPARγ; in the mixture) was 1.22 µg/mL, the “induction concentration (PPARγ)” value (human PPARγ; used alone) was 114.8 µg/mL and the “NF-κB % Inhibition” value (human NF-κB; 1.42 μg/ml active ingredient) was 3.1%. The “NF-κB % Inhibition” value (human NF-κB; 4.25 μg/ml active ingredient) was −0.70%, the “NF-κB % Inhibition” value (human NF-κB; 12.7 μg/ml active ingredient) was −6.1% and the “NF-κB % Inhibition” value (human NF-κB; 38.23 μg/ml active ingredient) was 5.9%. The “NF-κB % Inhibition” value (human NF-κB; 114.70 μg/ml active ingredient) was −14%, the “NF-κB % Live Cell” value (NF-κB reporter cells; 1.42 μg/ml active ingredient) was 100% and the “NF-κB % Live Cell” value (NF-κB reporter cells; 4.25 μg/ml active ingredient) was 104%. For the same compound, the “NF-κB % Live Cell” value (NF-κB reporter cells; 12.7 μg/ml active ingredient) was 102%, the “NF-κB % Live Cell” value (NF-κB reporter cells; 38.23 μg/ml active ingredient) was 104% and the “NF-κB % Live Cell” value (NF-κB reporter cells; 114.70 μg/ml active ingredient) was 105%. The “Nrf2 Fold-Activation” value (Nrf2; 1.42 μg/ml active ingredient) was 1.4 fold, the “Nrf2 Fold-Activation” value (Nrf2; 4.25 μg/ml active ingredient) was 1.4 fold and the “Nrf2 Fold-Activation” value (Nrf2; 12.7 μg/ml active ingredient) was 1.5 fold. For the same compound, the “Nrf2 Fold-Activation” value (Nrf2; 38.23 μg/ml active ingredient) was 1.5 fold, the “Nrf2 Fold-Activation” value (Nrf2; 114.70 μg/ml active ingredient) was 2.4 fold and the “agonist activity against human Nrf2” value (Nrf2; at the concentrations tested) was “very low-level agonist activity”.
